Test results reported in ChEMBL document CHEMBL1201862, “PubChem BioAssay data set” (2004).
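Dose response: 5 concentrations. Exposure: 48 h. Format: 96-well plates. Endpoint: linear interpolation; highest concentration if not reached. Abbreviation: GI50, concentration required for 50% inhibition of growth.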 The source made the active and inactive calls. Rule as the data show it: active = GI50 up to about 1.1 µM and inactive = higher.

How the values were obtained:
Assay in all cases: NCI tumour cell line growth inhibition, 48 h
RPMI-8226 = tested on: RPMI-8226
CAKI-1 = tested on: CAKI-1
SW-620 = tested on: SW-620
HOP-62 = tested on: HOP-62
NCI-H226 = tested on: NCI-H226
A549 = tested on: A549
EKVX = tested on: EKVX
A498 = tested on: A498
PC-3 = tested on: PC-3
SF-268 = tested on: SF-268
NCI-H522 = tested on: NCI-H522
KM12 = tested on: KM12
HOP-92 = tested on: HOP-92
Hs-578T = tested on: Hs-578T
SK-MEL-5 = tested on: SK-MEL-5
ACHN = tested on: ACHN
786-0 = tested on: 786-0
MCF7 = tested on: MCF7
T47D = tested on: T47D
UO-31 = tested on: UO-31
SF-295 = tested on: SF-295
HCT-15 = tested on: HCT-15
MDA-MB-435 = tested on: MDA-MB-435
UACC-257 = tested on: UACC-257
SR = tested on: SR
OVCAR-4 = tested on: OVCAR-4
HT-29 = tested on: HT-29
M14 = tested on: M14
UACC-62 = tested on: UACC-62
MOLT-4 = tested on: MOLT-4
NCI-H460 = tested on: NCI-H460
K562 = tested on: K562
NCI-H23 = tested on: NCI-H23
OVCAR-3 = tested on: OVCAR-3
HL-60 = tested on: HL-60
SK-MEL-2 = tested on: SK-MEL-2
CCRF-CEM = tested on: CCRF-CEM
U-251 = tested on: U-251
HCC 2998 = tested on: HCC 2998
Malme-3M = tested on: Malme-3M
MDA-N = tested on: MDA-N
HCT-116 = tested on: HCT-116
SK-OV-3 = tested on: SK-OV-3
NCI/ADR-RES = tested on: NCI/ADR-RES
IGROV-1 = tested on: IGROV-1
TK-10 = tested on: TK-10
SNB-19 = tested on: SNB-19
MDA-MB-231 = tested on: MDA-MB-231
SK-MEL-28 = tested on: SK-MEL-28
OVCAR-8 = tested on: OVCAR-8
OVCAR-5 = tested on: OVCAR-5
SN12C = tested on: SN12C
RXF 393 = tested on: RXF 393
COLO 205 = tested on: COLO 205
DU-145 = tested on: DU-145
LOX IMVI = tested on: LOX IMVI
BT-549 = tested on: BT-549
SNB-75 = tested on: SNB-75
SF-539 = tested on: SF-539

CC(C)(C)OC(=O)NCCCCC1NC(=O)[C@@H]2Cc3c([nH]c4ccccc34)C(c3ccccc3)N2C1=O (some centres undefined)
GI50 (RPMI-8226): 27.7 µM (inactive)
GI50 (CAKI-1): 50.5 µM (inactive)
GI50 (SW-620): 54 µM (inactive)
GI50 (HOP-62): 30.3 µM (inactive)
GI50 (NCI-H226): 63.7 µM (inactive)
GI50 (A549): 38.4 µM (inactive)
GI50 (EKVX): 44.9 µM (inactive)
GI50 (A498): 72.6 µM (inactive)
GI50 (PC-3): 33.8 µM (inactive)
GI50 (SF-268): 14 µM (inactive)
GI50 (NCI-H522): 23 µM (inactive)
GI50 (KM12): 18.9 µM (inactive)
GI50 (HOP-92): 22.8 µM (inactive)
GI50 (Hs-578T): 12.1 µM (inactive)
GI50 (SK-MEL-5): 27.6 µM (inactive)
GI50 (ACHN): 43.8 µM (inactive)
GI50 (786-0): 25.1 µM (inactive)
GI50 (MCF7): 35.2 µM (inactive)
GI50 (T47D): 18 µM (inactive)
GI50 (UO-31): 10.7 µM (inactive)
GI50 (SF-295): 22 µM (inactive)
GI50 (HCT-15): 31.1 µM
GI50 (MDA-MB-435): 34.2 µM (inactive)
GI50 (UACC-257): 35.6 µM (inactive)
GI50 (SR): 13.6 µM (inactive)
GI50 (OVCAR-4): 48.5 µM (inactive)
GI50 (HT-29): 25.6 µM (inactive)
GI50 (M14): 28.6 µM (inactive)
GI50 (UACC-62): 23.4 µM (inactive)
GI50 (MOLT-4): 15.6 µM (inactive)
GI50 (NCI-H460): 30.4 µM (inactive)
GI50 (K562): 33.4 µM (inactive)
GI50 (NCI-H23): 25.9 µM (inactive)
GI50 (OVCAR-3): 19 µM (inactive)
GI50 (HL-60): 21.5 µM (inactive)
GI50 (SK-MEL-2): 24.7 µM (inactive)
GI50 (CCRF-CEM): 26.7 µM (inactive)
GI50 (U-251): 35.1 µM (inactive)
GI50 (HCC 2998): 12.8 µM (inactive)
GI50 (Malme-3M): 31.1 µM (inactive)
GI50 (MDA-N): 29.4 µM (inactive)
GI50 (HCT-116): 29.7 µM (inactive)
GI50 (SK-OV-3): 50.4 µM (inactive)
GI50 (NCI/ADR-RES): 35.1 µM (inactive)
GI50 (IGROV-1): 40.3 µM (inactive)
GI50 (TK-10): 35.2 µM (inactive)
GI50 (SNB-19): 50.1 µM (inactive)
GI50 (MDA-MB-231): 27.4 µM (inactive)
GI50 (SK-MEL-28): 64.6 µM (inactive)
GI50 (OVCAR-8): 36.2 µM (inactive)
GI50 (OVCAR-5): 53.8 µM (inactive)
GI50 (SN12C): 28.8 µM (inactive)
GI50 (RXF 393): 14.7 µM (inactive)
GI50 (COLO 205): 21.1 µM (inactive)
GI50 (DU-145): 49.2 µM (inactive)
GI50 (LOX IMVI): 19.9 µM (inactive)
GI50 (BT-549): 21.9 µM (inactive)

CCOC(=O)c1c(C)n(-c2ccc(Cl)cc2)c2c1cc(O)c1[nH]c3c(c12)CCCC3
GI50 (RPMI-8226): 33.9 µM (inactive)
GI50 (CAKI-1): > 100 µM (inactive)
GI50 (SW-620): 47.3 µM (inactive)
GI50 (HOP-62): > 100 µM (inactive)
GI50 (NCI-H226): > 100 µM (inactive)
GI50 (A549): > 100 µM (inactive)
GI50 (EKVX): 75.7 µM (inactive)
GI50 (A498): 73.1 µM (inactive)
GI50 (PC-3): 41 µM (inactive)
GI50 (SF-268): 50.5 µM (inactive)
GI50 (NCI-H522): 24.3 µM (inactive)
GI50 (KM12): 29 µM (inactive)
GI50 (HOP-92): 38.5 µM (inactive)
GI50 (Hs-578T): 22.5 µM (inactive)
GI50 (SK-MEL-5): 21.6 µM (inactive)
GI50 (ACHN): 46.3 µM (inactive)
GI50 (786-0): > 100 µM (inactive)
GI50 (MCF7): 34.7 µM (inactive)
GI50 (T47D): > 100 µM (inactive)
GI50 (UO-31): > 100 µM (inactive)
GI50 (SF-295): 52.8 µM (inactive)
GI50 (HCT-15): > 100 µM
GI50 (MDA-MB-435): 24.9 µM (inactive)
GI50 (UACC-257): 47 µM (inactive)
GI50 (SR): 3.87 µM (inactive)
GI50 (OVCAR-4): 45.8 µM (inactive)
GI50 (HT-29): 30.2 µM (inactive)
GI50 (M14): 57.3 µM (inactive)
GI50 (UACC-62): 27.1 µM (inactive)
GI50 (MOLT-4): 26.4 µM (inactive)
GI50 (NCI-H460): 47.5 µM (inactive)
GI50 (K562): 41.3 µM (inactive)
GI50 (NCI-H23): 48.6 µM (inactive)
GI50 (OVCAR-3): 54.2 µM (inactive)
GI50 (HL-60): 34.6 µM (inactive)
GI50 (SNB-75): 44 µM (inactive)
GI50 (SK-MEL-2): 29.6 µM (inactive)
GI50 (CCRF-CEM): 32.4 µM (inactive)
GI50 (U-251): 38.3 µM (inactive)
GI50 (HCC 2998): 60.7 µM (inactive)
GI50 (Malme-3M): 80.2 µM (inactive)
GI50 (MDA-N): 35.7 µM (inactive)
GI50 (HCT-116): > 100 µM (inactive)
GI50 (SK-OV-3): > 100 µM (inactive)
GI50 (NCI/ADR-RES): > 100 µM (inactive)
GI50 (IGROV-1): 44.4 µM (inactive)
GI50 (TK-10): > 100 µM (inactive)
GI50 (SF-539): 42.5 µM (inactive)
GI50 (SNB-19): 46.3 µM (inactive)
GI50 (MDA-MB-231): > 100 µM (inactive)
GI50 (SK-MEL-28): 33.2 µM (inactive)
GI50 (OVCAR-8): 55.6 µM (inactive)
GI50 (OVCAR-5): > 100 µM (inactive)
GI50 (SN12C): 65.2 µM (inactive)
GI50 (RXF 393): 19.5 µM (inactive)
GI50 (COLO 205): 48.8 µM (inactive)
GI50 (DU-145): > 100 µM (inactive)
GI50 (LOX IMVI): 29.4 µM (inactive)
GI50 (BT-549): 52.7 µM (inactive)

CC(C)(C)c1cc(C2=NN(c3ccccc3)C(c3ccccc3)C2)cc(C(C)(C)C)c1O (centres undefined)
GI50 (RPMI-8226): > 100 µM (inactive)
GI50 (CAKI-1): > 100 µM (inactive)
GI50 (SW-620): > 100 µM (inactive)
GI50 (HOP-62): > 100 µM (inactive)
GI50 (NCI-H226): > 100 µM (inactive)
GI50 (A549): > 100 µM (inactive)
GI50 (EKVX): > 100 µM (inactive)
GI50 (A498): > 100 µM (inactive)
GI50 (PC-3): > 100 µM (inactive)
GI50 (SF-268): > 100 µM (inactive)
GI50 (NCI-H522): > 100 µM (inactive)
GI50 (KM12): > 100 µM (inactive)
GI50 (HOP-92): > 100 µM (inactive)
GI50 (Hs-578T): > 100 µM (inactive)
GI50 (SK-MEL-5): > 100 µM (inactive)
GI50 (ACHN): > 100 µM (inactive)
GI50 (786-0): > 100 µM (inactive)
GI50 (MCF7): 93.5 µM (inactive)
GI50 (T47D): 31.5 µM (inactive)
GI50 (UO-31): > 100 µM (inactive)
GI50 (SF-295): > 100 µM (inactive)
GI50 (HCT-15): > 100 µM
GI50 (MDA-MB-435): > 100 µM (inactive)
GI50 (UACC-257): 35.2 µM (inactive)
GI50 (SR): 29.3 µM (inactive)
GI50 (OVCAR-4): > 100 µM (inactive)
GI50 (HT-29): > 100 µM (inactive)
GI50 (M14): > 100 µM (inactive)
GI50 (UACC-62): > 100 µM (inactive)
GI50 (MOLT-4): > 100 µM (inactive)
GI50 (NCI-H460): > 100 µM (inactive)
GI50 (K562): > 100 µM (inactive)
GI50 (NCI-H23): > 100 µM (inactive)
GI50 (OVCAR-3): 54.8 µM (inactive)
GI50 (HL-60): 12.1 µM (inactive)
GI50 (SNB-75): > 100 µM (inactive)
GI50 (SK-MEL-2): > 100 µM (inactive)
GI50 (CCRF-CEM): 19.1 µM (inactive)
GI50 (U-251): > 100 µM (inactive)
GI50 (Malme-3M): > 100 µM (inactive)
GI50 (MDA-N): > 100 µM (inactive)
GI50 (HCT-116): > 100 µM (inactive)
GI50 (SK-OV-3): > 100 µM (inactive)
GI50 (NCI/ADR-RES): > 100 µM (inactive)
GI50 (IGROV-1): > 100 µM (inactive)
GI50 (TK-10): > 100 µM (inactive)
GI50 (SF-539): > 100 µM (inactive)
GI50 (SNB-19): > 100 µM (inactive)
GI50 (MDA-MB-231): > 100 µM (inactive)
GI50 (SK-MEL-28): > 100 µM (inactive)
GI50 (OVCAR-8): > 100 µM (inactive)
GI50 (OVCAR-5): > 100 µM (inactive)
GI50 (SN12C): > 100 µM (inactive)
GI50 (RXF 393): > 100 µM (inactive)
GI50 (COLO 205): 35.7 µM (inactive)
GI50 (DU-145): > 100 µM (inactive)
GI50 (LOX IMVI): > 100 µM (inactive)
GI50 (BT-549): > 100 µM (inactive)
